Experiment [1] concerns the target T1, Prothrombin (Homo sapiens, UniProt P00734). Put plainly: Concentration required for 50 percent inhibition of Prothrombin.
The target of experiment [2] is T1, Prothrombin. Put plainly: The compound was evaluated for binding affinity against Prothrombin.

Data on seven compounds can be found in ChEMBL document CHEMBL1133375, “Exploring the chiral space within the active site of alpha-thrombin with a constrained mimic of D-Phe-Pro-Arg--design, synthesis, inhibitory activity, and X-ray structure of an enzyme-inhibitor complex” (Bioorg Med Chem Lett, 2000).

Broadly, the IC50 is the concentration that inhibits the measured activity by half. A high value points to weaker potency in that assay. Consider `NCc1ccc(CNC(=O)[C@@H]2CC[C@H]3[C@@H](OCc4ccccc4)CCC(=O)N23)cc1`, for which it took 12.6 µM to reach half-maximal inhibition against Prothrombin [1] (IC50).

What is called Ki is a dissociation constant, usually derived from enzyme kinetics or from competition with a known ligand. Read a high Ki as weaker binding. At Prothrombin [2], `C[C@]1(O)CC[C@@H]2CC[C@@H](C(=O)NCc3ccc(C(=N)N)cc3)N2C1=O` registered an inhibition constant (Ki) of 0.125 µM. At Prothrombin [1], the IC50 is 0.251 µM.

On Prothrombin [2], `CO[C@H]1C[C@@](O)(Cc2ccccc2)C(=O)N2[C@H](C(=O)NCc3ccc(C(=N)N)cc3)CC[C@@H]12` had a Ki of 0.125 µM. At Prothrombin [1], this compound had an IC50 of 0.251 µM.

`N=C(N)c1ccc(CNC(=O)[C@@H]2CC[C@H]3CC[C@@](O)(Cc4ccccc4)C(=O)N32)cc1` returned a Ki at Prothrombin [2] of 0.009 µM. Besides, at Prothrombin [1], the IC50 was 0.02 µM.

`O=C(NCC1CCNCC1)[C@@H]1CC[C@H]2[C@@H](OCc3ccccc3)CCC(=O)N12`: the IC50 against Prothrombin [1] is 12.6 µM.

Compound `O=C(NCC1CCNCC1)[C@@H]1CC[C@H]2[C@@H](OCc3ccccc3)C[C@H](O)C(=O)N12` had an IC50 against Prothrombin [1] of 12.6 µM.

Take `NCc1ccc(CNC(=O)[C@@H]2CC[C@H]3[C@@H](OCc4ccccc4)C[C@H](O)C(=O)N23)cc1`: the IC50 against Prothrombin [1] was 12.6 µM.
